“And” between values parts separate entries of the source, which are not always exact repeats. Identical values can stand only once. Toxic doses and inconclusive results are not listed. How the source made its calls: active means survival T/C of 150% or more; inactive means T/C below 125% in these data.
Tested on: P388 leukemia ip, CD2F1 mice, survival T/C
Assay: NCI In Vivo Anticancer Drug Screen. Data for tumor model P388 Leukemia (intraperitoneal) in CD2F1 (CDF1) mice
Conditions: endpoint: median survival time, higher = longer survival
Method in brief: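 Mice carrying the transplanted tumor received test compound or vehicle. Survival was recorded in each group, and the value is the treated-group measurement divided by that of the vehicle-treated control group.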

[1] = dose: 25.0 mg/kg/injection, schedule: Q01DX009 (ip), vehicle: saline
[2] = dose: 50.0 mg/kg/injection, schedule: Q01DX009 (ip), vehicle: saline with Tween-80
[3] = dose: 50.0 mg/kg/injection, schedule: Q01DX009 (ip), vehicle: saline
[4] = dose: 100.0 mg/kg/injection, schedule: Q01DX009 (ip), vehicle: saline with Tween-80
[5] = dose: 100.0 mg/kg/injection, schedule: Q01DX009 (ip), vehicle: saline
[6] = dose: 60.0 mg/kg/injection, schedule: Q01DX005 (ip), vehicle: saline with Tween-80
[7] = dose: 120.0 mg/kg/injection, schedule: Q01DX005 (ip), vehicle: saline with Tween-80
[8] = dose: 240.0 mg/kg/injection, schedule: Q01DX005 (ip), vehicle: saline with Tween-80
[9] = dose: 60.0 mg/kg/injection, schedule: Q01DX005 (ip), vehicle: Klucel (hydroxypropylcellulose) (HPC)
[10] = dose: 120.0 mg/kg/injection, schedule: Q01DX005 (ip), vehicle: Klucel (hydroxypropylcellulose) (HPC)
[11] = dose: 50.0 mg/kg/injection, schedule: Q01DX005 (ip), vehicle: saline with Tween-80
[12] = dose: 100.0 mg/kg/injection, schedule: Q01DX005 (ip), vehicle: saline with Tween-80
[13] = dose: 200.0 mg/kg/injection, schedule: Q01DX005 (ip), vehicle: saline with Tween-80

Measured: T/C

O=S1(=O)CCN(C2CCCC2)CC1
inactive: dose: 25.0 mg/kg/injection, schedule: Q01DX009 (ip), vehicle: Klucel (hydroxypropylcellulose) (HPC) 94 % of control | dose: 50.0 mg/kg/injection, schedule: Q01DX009 (ip), vehicle: Klucel (hydroxypropylcellulose) (HPC) 93 % of control and 95 % of control | dose: 100.0 mg/kg/injection, schedule: Q01DX009 (ip), vehicle: Klucel (hydroxypropylcellulose) (HPC) 92 % of control and 95 % of control | dose: 200.0 mg/kg/injection, schedule: Q01DX009 (ip), vehicle: Klucel (hydroxypropylcellulose) (HPC) 99 % of control and 94 % of control

NNC(=O)CC(N)C(=O)O (stereo not given)
inactive: [1] 100 % of control | [2] 110 % of control | [3] 105 % of control and 122 % of control | [4] 108 % of control | [5] 109 % of control and 122 % of control | dose: 200.0 mg/kg/injection, schedule: Q01DX009 (ip), vehicle: saline with Tween-80 117 % of control | dose: 200.0 mg/kg/injection, schedule: Q01DX009 (ip), vehicle: saline 116 % of control | dose: 400.0 mg/kg/injection, schedule: Q01DX009 (ip), vehicle: saline 107 % of control

CC(C)(C)c1cc(N)cc([N+](=O)[O-])c1
inactive: dose: 100.0 mg/kg/injection, schedule: Q04DX002 (ip), vehicle: other 109 % of control | dose: 200.0 mg/kg/injection, schedule: Q04DX002 (ip), vehicle: other 102 % of control

COc1ccc2c(c1OC)C1N(C)CCc3cc4c(cc3C1(OC)C2=O)OCO4 (stereo not given)
inactive: [6] 93 % of control | [7] 88 % of control | [8] 93 % of control

COc1cc(C(=O)OC(C)CC2(c3ccccc3)C(=O)NC(=O)NC2=O)cc(OC)c1OC (stereo not given)
inactive: [2] 90 % of control | [4] 90 % of control

CC1=CC(O)C(O)C2(C)C1CC(=O)C13COC4OC(CC1C4=O)C(O)C32 (stereo not given)
inactive: dose: 0.5 mg/kg/injection, schedule: Q01DX009 (ip), vehicle: saline 102 % of control | dose: 1.0 mg/kg/injection, schedule: Q01DX009 (ip), vehicle: saline 103 % of control | dose: 2.0 mg/kg/injection, schedule: Q01DX009 (ip), vehicle: Klucel (hydroxypropylcellulose) (HPC) 96 % of control and 97 % of control | dose: 2.0 mg/kg/injection, schedule: Q01DX009 (ip), vehicle: saline 107 % of control | dose: 4.0 mg/kg/injection, schedule: Q01DX009 (ip), vehicle: Klucel (hydroxypropylcellulose) (HPC) 100 % of control and 111 % of control and 92 % of control | dose: 4.0 mg/kg/injection, schedule: Q01DX009 (ip), vehicle: saline 102 % of control | dose: 8.0 mg/kg/injection, schedule: Q01DX009 (ip), vehicle: Klucel (hydroxypropylcellulose) (HPC) 98 % of control and 94 % of control | dose: 16.0 mg/kg/injection, schedule: Q01DX009 (ip), vehicle: Klucel (hydroxypropylcellulose) (HPC) 92 % of control | dose: 32.0 mg/kg/injection, schedule: Q01DX009 (ip), vehicle: Klucel (hydroxypropylcellulose) (HPC) 86 % of control

COc1ccc(OC)c(NCCCN2C(=O)c3ccccc3C2=O)c1
inactive: [6] 90 % of control | [7] 86 % of control

N[C@H]1CC[C@@H](C(=O)O)C1
inactive: dose: 50.0 mg/kg/injection, schedule: Q01DX005 (ip), vehicle: saline 109 % of control | dose: 100.0 mg/kg/injection, schedule: Q01DX005 (ip), vehicle: saline 101 % of control | dose: 200.0 mg/kg/injection, schedule: Q01DX005 (ip), vehicle: saline 108 % of control

Cc1nc2sccn2c1C#N
inactive: dose: 12.5 mg/kg/injection, schedule: Q01DX001 (ip), vehicle: Klucel (hydroxypropylcellulose) (HPC) 117 % of control | dose: 25.0 mg/kg/injection, schedule: Q01DX001 (ip), vehicle: Klucel (hydroxypropylcellulose) (HPC) 102 % of control | dose: 50.0 mg/kg/injection, schedule: Q01DX001 (ip), vehicle: Klucel (hydroxypropylcellulose) (HPC) 102 % of control

CCN(CC)c1nc(NNC(=S)NC)nc(N(CC)CC)n1
inactive: dose: 100.0 mg/kg/injection, schedule: Q04DX002 (ip), vehicle: saline with Tween-80 100 % of control | dose: 200.0 mg/kg/injection, schedule: Q04DX002 (ip), vehicle: saline with Tween-80 98 % of control | dose: 400.0 mg/kg/injection, schedule: Q04DX002 (ip), vehicle: saline with Tween-80 100 % of control

Cc1ccc(C)c2c1[nH]c1c(C)c3ccncc3c(C)c12
inactive: dose: 100.0 mg/kg/injection, schedule: Q01DX001 (ip), vehicle: saline with Tween-80 100 % of control | dose: 200.0 mg/kg/injection, schedule: Q01DX001 (ip), vehicle: saline with Tween-80 104 % of control | dose: 400.0 mg/kg/injection, schedule: Q01DX001 (ip), vehicle: saline with Tween-80 120 % of control

COC1=C(C)C(=O)c2c(C(C)C)cc(O)c(C=O)c2C1=O
inactive: dose: 3.0 mg/kg/injection, schedule: Q01DX009 (ip), vehicle: Klucel (hydroxypropylcellulose) (HPC) 100 % of control | dose: 6.0 mg/kg/injection, schedule: Q01DX009 (ip), vehicle: Klucel (hydroxypropylcellulose) (HPC) 100 % of control | dose: 12.0 mg/kg/injection, schedule: Q01DX009 (ip), vehicle: Klucel (hydroxypropylcellulose) (HPC) 109 % of control | dose: 24.0 mg/kg/injection, schedule: Q01DX009 (ip), vehicle: Klucel (hydroxypropylcellulose) (HPC) 109 % of control

CN(C)c1nc(Cl)c2cc(Cl)ccc2n1
inactive: [9] 100 % of control | [10] 99 % of control

COc1cc2c3cc1Oc1c(OC)c(OC)cc4c1[C@@H](Cc1ccc(OC)c(c1OC)Oc1ccc(cc1)C[C@@H]3N(C)CC2)N(C)CC4
inactive: dose: 3.63 mg/kg/injection, schedule: Q01DX005 (ip), vehicle: Klucel (hydroxypropylcellulose) (HPC) 103 % of control | dose: 7.25 mg/kg/injection, schedule: Q01DX005 (ip), vehicle: Klucel (hydroxypropylcellulose) (HPC) 99 % of control | dose: 14.5 mg/kg/injection, schedule: Q01DX005 (ip), vehicle: Klucel (hydroxypropylcellulose) (HPC) 102 % of control | dose: 29.0 mg/kg/injection, schedule: Q01DX005 (ip), vehicle: Klucel (hydroxypropylcellulose) (HPC) 93 % of control | dose: 58.0 mg/kg/injection, schedule: Q01DX005 (ip), vehicle: Klucel (hydroxypropylcellulose) (HPC) 109 % of control

CN1[C@@H](CC(=O)c2ccccc2)CCC[C@H]1CC(=O)c1ccccc1
inactive: [1] 95 % of control | [3] 103 % of control | [5] 102 % of control

COC(=O)n1nnc2ncccc21
inactive: dose: 60.0 mg/kg/injection, schedule: Q01DX005 (ip), vehicle: saline 101 % of control | dose: 120.0 mg/kg/injection, schedule: Q01DX005 (ip), vehicle: saline 100 % of control | dose: 240.0 mg/kg/injection, schedule: Q01DX005 (ip), vehicle: saline 92 % of control

O=c1/c(=C/c2ccc(/C=c3\sc4nc5ccccc5n4c3=O)cc2)sc2nc3ccccc3n12
inactive: [11] 92 % of control | [12] 90 % of control | [13] 95 % of control

COc1cccc(C(Nc2nncs2)Nc2nncs2)c1
inactive: [6] 97 % of control | [7] 97 % of control | [8] 122 % of control

Nc1ncnc2nc(-c3ccc(SCc4ccccc4)cc3)[nH]c12
inactive: [6] 95 % of control | [7] 94 % of control | [8] 93 % of control

Oc1cccc(N2CCN(c3cccc(O)c3)CC2)c1
inactive: [9] 91 % of control | [10] 89 % of control

NNc1ccc(Cl)nn1
inactive: dose: 7.5 mg/kg/injection, schedule: Q01DX005 (ip), vehicle: saline with Tween-80 101 % of control | dose: 15.0 mg/kg/injection, schedule: Q01DX005 (ip), vehicle: saline with Tween-80 99 % of control

COC(=O)/N=C/CCC(O)NC(=O)OC (stereo not given)
inactive: [11] 98 % of control | [12] 101 % of control | [13] 92 % of control

From PubChem BioAssay AID330 (DTP/NCI, 2004)
